Read-outs that look alike come from different tables or passages of the source. A value given as a limit tells only on which side of the number the result lay.

Pest or weed control data for 23 compounds are collected here from US9681664B2, “Macrocyclic picolinamides as fungicides” (Dow Agrosciences LLC, priority 2012, dated 2017).

In assay [1] the test system is Mycosphaerella graminicola; Anamorph: Septoria tritici. The experiment in a line: Leaf blotch of wheat (SEPTTR) disease control on wheat seedlings. In kind it is in vivo. The following applies: Zymoseptoria tritici; for pest or weed control at 121.5 g/ha: low volume application, 121.5 g/H. The method in brief: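 Protective or curative format: Septoria tritici inoculation either preceded or followed fungicide application to first-leaf Yuma wheat. Severity scored 0–100%; control expressed versus untreated.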

In assay [2] the test system is Puccinia triticina; Synonym: Puccinia recondite f. sp. tritici. The experiment in a line: Wheat brown rust (PUCCRT) disease control on wheat seedlings. In kind it is in vivo. The following applies: Puccinia triticina; for pest or weed control at 121.5 g/ha: low volume application, 121.5 g/H. The gist of the method: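 Yuma wheat grown to first fully emerged leaf was inoculated with Puccinia triticina spore suspension either before or after fungicide treatment, held overnight at 22° C. and 100% RH in darkness, then kept at 24° C. Fungicide applied by booth sprayer to run-off (acetone/water, 110 ppm Triton X-100) or as EC by track spray.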

Setting [3] is: 24 h, High volume application, 1 Day Protectant, read-out: SEPTTR 1DP disease control.
[4] abbreviates: 72 h, High volume application, 3 Day Curative, read-out: SEPTTR 3DC disease control.
Setting [5] is: 24 h, High volume application, 1 Day Protectant, read-out: PUCCRT 1DP disease control.
The mark [6] stands for this setting: 72 h, High volume application, 3 Day Curative, read-out: PUCCRT 3DC disease control.
[7] abbreviates: 24 h, Wheat Leaf Blotch, 1 Day Protectant, high volume application, read-out: Disease Control SEPTTR 1 DP 100 ppm.
Where [8] appears, read: 24 h, Wheat Leaf Blotch, 1 Day Protectant, read-out: Disease Control SEPTTR 1 DP 121.5 g/H.
[9] abbreviates: 72 h, Wheat Leaf Blotch, 3 Day Curative, high volume application, read-out: Disease Control SEPTTR 3 DC 100 ppm.
[10] abbreviates: 72 h, Wheat Leaf Blotch, 3 Day Curative, read-out: Disease Control SEPTTR 3 DC 121.5 g/H.
The mark [11] stands for this setting: 24 h, Wheat Brown Rust, 1 Day Protectant, high volume application, read-out: Disease Control PUCCRT 1 DP 100 ppm.
The mark [12] stands for this setting: 24 h, Wheat Brown Rust, 1 Day Protectant, read-out: Disease Control PUCCRT 1 DP 121.5 g/H.
Where [13] appears, read: 72 h, Wheat Brown Rust, 3 Day Curative, high volume application, read-out: Disease Control PUCCRT 3 DC 100 ppm.
Setting [14] is: 72 h, Wheat Brown Rust, 3 Day Curative, read-out: Disease Control PUCCRT 3 DC 121.5 g/H.

For `CCCCCO[C@H]1[C@H](C)OC(=O)[C@@H](NC(=O)c2nccc(OC)c2O)CCC[C@@H]1Oc1ccccc1` [F94], the pest or weed control at 100 ppm in assay [1] (setting [3]) is 0 to 80%; in assay [1] (setting [4]), 0 to 80%; in assay [2] (setting [5]), 0 to 80%; in assay [2] (setting [6]) it was less than 0%.
Turning to `COc1ccnc(C(=O)N[C@H]2CCC[C@H](OCCCC(F)(F)F)[C@@H](Oc3ccccc3)[C@H](C)OC2=O)c1OC(C)=O` [F137], the pest or weed control at 100 ppm in assay [1] (setting [3]), in assay [1] (setting [4]), in assay [2] (setting [5]) and in assay [2] (setting [6]) was 80 to 100% each time.
Take `CCCO[C@H]1CCC[C@H](NC(=O)c2nccc(OC)c2OC(C)=O)C(=O)O[C@@H](C)[C@@H]1Oc1ccc(Br)cc1` [F285]: the pest or weed control at 100 ppm in assay [1] (setting [7]) fell in the range of 80 to 100%; in assay [1] (setting [9]) it was 80 to 100%; in assay [2] (setting [11]), 80 to 100%; in assay [2] (setting [13]), 0 to 80%. For the same compound, the pest or weed control at 121.5 g/ha in assay [1] (setting [8]), in assay [1] (setting [10]), in assay [2] (setting [12]) and in assay [2] (setting [14]) was 80 to 100% in each case.
Take `CCCO[C@H]1CCC[C@H](NC(=O)c2nccc(OC)c2O)C(=O)O[C@@H](C)[C@@H]1Oc1cccc(F)c1` [F271]: the pest or weed control at 100 ppm in assay [1] (setting [7]), in assay [1] (setting [9]), in assay [2] (setting [11]) and in assay [2] (setting [13]) was 80 to 100% in each case.
For the compound `COc1ccnc(C(=O)N[C@H]2CCC[C@H](Oc3ccccc3)[C@@H](OC3CCCC3)[C@H](C)OC2=O)c1O` [F75], the pest or weed control at 100 ppm in assay [1] (setting [3]), in assay [1] (setting [4]), in assay [2] (setting [5]) and in assay [2] (setting [6]) was 80 to 100% throughout.
Consider `COc1ccnc(C(=O)N[C@H]2CCC[C@H](Oc3ccccc3)[C@@H](OC(=O)C3CCCC3)[C@H](C)OC2=O)c1OC(=O)C1CC1` [F236], for which the pest or weed control at 100 ppm in assay [1] (setting [7]) was in the range of 0 to 80%; in assay [1] (setting [9]) it was 0 to 80%; in assay [2] (setting [11]), 80 to 100%; in assay [2] (setting [13]), 0 to 80%. For the same compound, the pest or weed control at 121.5 g/ha is 80 to 100% in assay [1] (setting [8]), 0 to 80% in assay [1] (setting [10]), 0 to 80% in assay [2] (setting [12]) and less than 0% in assay [2] (setting [14]).
`COc1ccnc(C(=O)N[C@H]2CCC[C@H](OC(=O)C3CCCC3)[C@@H](OC3CCCC3)[C@H](C)OC2=O)c1OCOC(=O)C(C)C` [F157]: the pest or weed control at 100 ppm in assay [1] (setting [3]), in assay [1] (setting [4]), in assay [2] (setting [5]) and in assay [2] (setting [6]) was 80 to 100% in each case.
On to `COc1ccnc(C(=O)N[C@H]2CCC[C@H](OC(=O)C3CCCC3)[C@@H](OCC(C)C)[C@H](C)OC2=O)c1OCOC(C)=O` [F223], for which the pest or weed control at 100 ppm in assay [1] (setting [3]), in assay [1] (setting [4]), in assay [2] (setting [5]) and in assay [2] (setting [6]) was 80 to 100% each time.
For the compound `COc1ccnc(C(=O)N[C@H]2CCC[C@H](OCC(C)C)[C@@H](OC3CCCCC3)[C@H](C)OC2=O)c1O` [F210], the pest or weed control at 100 ppm in assay [1] (setting [3]), in assay [1] (setting [4]), in assay [2] (setting [5]) and in assay [2] (setting [6]) was 80 to 100% in each case.
As for `COCCC(=O)Oc1c(OC)ccnc1C(=O)N[C@H]1CCC[C@H](Oc2ccccc2)[C@@H](OCCCC(F)(F)F)[C@H](C)OC1=O` [F110], the pest or weed control at 100 ppm in assay [1] (setting [3]), in assay [1] (setting [4]), in assay [2] (setting [5]) and in assay [2] (setting [6]) was 80 to 100% throughout.
As for `CCCO[C@H]1[C@H](C)OC(=O)[C@@H](NC(=O)c2nccc(OC)c2OCOC(=O)C(C)C)CCC[C@@H]1Oc1ccccc1` [F97], the pest or weed control at 100 ppm in assay [1] (setting [3]), in assay [1] (setting [4]), in assay [2] (setting [5]) and in assay [2] (setting [6]) was 80 to 100% throughout.
In the case of `CCCO[C@H]1[C@H](C)OC(=O)[C@@H](NC(=O)c2nccc(OC)c2O)CCC[C@@H]1Oc1ccccc1` [F93], the pest or weed control at 100 ppm in assay [1] (setting [3]), in assay [1] (setting [4]), in assay [2] (setting [5]) and in assay [2] (setting [6]) was 80 to 100% throughout.
On to `COc1ccnc(C(=O)N[C@H]2CCC[C@H](Oc3ccccc3)[C@@H](OCCCc3ccccc3)[C@H](C)OC2=O)c1OC(C)=O` [F131], for which the pest or weed control at 100 ppm in assay [1] (setting [3]), in assay [1] (setting [4]), in assay [2] (setting [5]) and in assay [2] (setting [6]) was 80 to 100% throughout.
`COc1ccnc(C(=O)N[C@H]2CCC[C@H](OC(=O)C3CCCC3)[C@@H](OCC(C)C)[C@H](C)OC2=O)c1O` [F221]: the pest or weed control at 100 ppm in assay [1] (setting [3]) fell in the range of 80 to 100%; in assay [1] (setting [4]) it was 0 to 80%; in assay [2] (setting [5]), 80 to 100%; in assay [2] (setting [6]) it was 0 to 80%.
For the compound `COc1ccc(O[C@H]2CCC[C@H](NC(=O)c3nccc(OC)c3OCOC(C)=O)C(=O)O[C@@H](C)[C@@H]2Oc2ccc(F)cc2)cc1` [F60], the pest or weed control at 100 ppm in assay [1] (setting [3]), in assay [1] (setting [4]), in assay [2] (setting [5]) and in assay [2] (setting [6]) was 80 to 100% each time.
With `COc1ccnc(C(=O)N[C@H]2CCC[C@H](OCC(C)C)[C@@H](OC(=O)C3CCCC3)[C@H](C)OC2=O)c1O` [F149], the pest or weed control at 100 ppm in assay [1] (setting [3]) was 80 to 100%; in assay [1] (setting [4]), 0 to 80%; in assay [2] (setting [5]), 80 to 100%; in assay [2] (setting [6]) it was 80 to 100%.
As for `COc1ccnc(C(=O)N[C@H]2CCC[C@H](Oc3ccccc3)[C@@H](OCc3ccccc3)[C@H](C)OC2=O)c1OCOC(C)=O` [F32], the pest or weed control at 100 ppm in assay [1] (setting [3]), in assay [1] (setting [4]), in assay [2] (setting [5]) and in assay [2] (setting [6]) was 80 to 100% throughout.
For `COc1ccnc(C(=O)N[C@H]2CCC[C@H](OCC(C)C)[C@@H](OCCCc3ccccc3)[C@H](C)OC2=O)c1OCOC(C)=O` [F43], the pest or weed control at 100 ppm in assay [1] (setting [3]), in assay [1] (setting [4]), in assay [2] (setting [5]) and in assay [2] (setting [6]) was 80 to 100% in each case.
Take `C=C(C)c1ccc(O[C@H]2[C@H](C)OC(=O)[C@@H](NC(=O)c3nccc(OC)c3O)CCC[C@@H]2OCCC)cc1` [F288]: the pest or weed control at 100 ppm in assay [1] (setting [7]), in assay [1] (setting [9]), in assay [2] (setting [11]) and in assay [2] (setting [13]) was 80 to 100% each time.
Regarding `C=C(C)c1ccc(O[C@H]2[C@H](C)OC(=O)[C@@H](NC(=O)c3nccc(OC)c3OC(C)=O)CCC[C@@H]2OCCC)cc1` [F289], the pest or weed control at 100 ppm in assay [1] (setting [7]), in assay [1] (setting [9]), in assay [2] (setting [11]) and in assay [2] (setting [13]) was 80 to 100% throughout. Also, the pest or weed control at 121.5 g/ha in assay [1] (setting [8]), in assay [1] (setting [10]), in assay [2] (setting [12]) and in assay [2] (setting [14]) was 80 to 100% in each case.
For `COc1ccnc(C(=O)N[C@H]2CCC[C@H](OCC(C)C)[C@@H](OC(=O)C3CCCC3)[C@H](C)OC2=O)c1OCOC(C)=O` [F150], the pest or weed control at 100 ppm in assay [1] (setting [3]), in assay [1] (setting [4]), in assay [2] (setting [5]) and in assay [2] (setting [6]) was 80 to 100% each time.
Regarding `C=C(C)CO[C@H]1[C@H](C)OC(=O)[C@@H](NC(=O)c2nccc(OC)c2O)CCC[C@@H]1OCC(=C)C` [F14, 3-hydroxy-4-methoxy-N-((3S,7S,8S,9S)-9-methyl-7,8-bis((2-methylallyl)oxy)-2-oxooxonan-3-yl)pyridine-2-carboxamide], the pest or weed control at 100 ppm in assay [1] (setting [3]) is less than 0%; in assay [1] (setting [4]), 80 to 100%; in assay [2] (setting [5]) it was 80 to 100%; in assay [2] (setting [6]), 80 to 100%.
As to `COc1ccnc(C(=O)N[C@H]2CCC[C@H](OCC(C)C)[C@@H](OC)[C@H](C)OC2=O)c1OC(C)=O` [F257], the pest or weed control at 121.5 g/ha in assay [1] (setting [8]), in assay [1] (setting [10]), in assay [2] (setting [12]) and in assay [2] (setting [14]) was 80 to 100% in each case.
